Measured values: patent US20120328602A1, “COMPOSITIONS AND METHODS FOR TREATING CONDITIONS ASSOCIATED WITH CERAMIDE BIOSYNTHESIS” (priority 2007, published 2012)
Entries after “also recorded” stand apart in the source; their conditions may differ. Like-named read-outs stand apart in the source and are kept apart here.

What was measured:
ceramide [1] = test: ceramide in spinal cord dorsal horn by immunohistochemistry and ESI-MS/MS (Example 1); type: in vivo, mice
GFAP = test: spinal expression of GFAP (astrocyte activation); type: in vivo, mice; details: for GFAP immunoreactivity in superficial layers of the dorsal horn: micrographs
Protocol: Animals were rapidly sacrificed (<1 min) in a CO2 chamber and the dorsal portion of the spinal cord lumbar region enlargement removed and stored at −80° C. until used. Cytosolic and nuclear extracts were prepared as previously described (Bethea et al., 1998), with minor modifications. Tissues from each mouse were suspended in extraction Buffer A (0.2 mM PMSF, […], 20 μM leupeptin, 1 mM sodium orthovanadate), homogenized for two minutes, and centrifuged at 1,000×g for ten minutes at 4° C. Supernatants were collected as the cytosolic fraction. The pellets containing nuclei were re-suspended in Buffer B (1% Triton X-100, 150 mM NaCl, 10 mM TRIS-HCl pH 7.4, 1 mM EGTA, 1 mM EDTA, 0.2 mM PMSF, 20 μm leupeptin, 0.2 mM sodium orthovanadate). After centrifugation for thirty minutes at 15,000×g at 4° C., the supernatants were collected as nuclear extracts and then stored at […] for further analysis. The levels of IκB-α, phospho-NF-κB p65 (serine 536), were quantified in cytosolic fraction from spinal cord tissue, while NF-κB p65 levels were quantified in nuclear fraction.

mice [2] = test: hot plate, morphine-induced antinociceptive tolerance (Examples 3-5); type: in vivo, Male CD-1 mice; details: for % MPE: n=6
Protocol: Nociceptive thresholds were determined by measuring latencies (in seconds) of mice placed in a transparent glass cylinder on a hot plate (Ugo Basile, Italy) maintained at 52° C. Determination of antinociception was assessed between 7 and 10:00 A.M. All injections were given intra-peritoneally (i.p.) or subcutaneously (s.c.) in a volume of 0.1 and 0.3 ml, respectively, at approximately 7 A.M. and 4 P.M. Responses indicative of nociception included intermittent lifting and/or licking of the hindpaws or escape behavior. […] Results were expressed as percentage of maximum possible antinociceptive effect, which was calculated as follows: (response latency−baseline latency)/(cut-off latency−baseline latency)×100. A cut-off latency of twenty seconds was employed to prevent tissue damage. Ten mice per group were used and all experiments were conducted with the experimentors blinded to treatment conditions. […] The following experimental groups were used: […]
Vehicle (V) Group: In this group, mice were injected twice per day for four days with an i.p, injection of saline and a s.c. injection of saline.

mice [3] = type: in vivo, male CD-1 mice
mice [4] = type: in vivo; details: for % MPE for acute morphine: acute morphine 3 mg/kg s.c. on day five
ceramide synthase = ceramide synthase activity in spinal cord homogenates; type: in vivo, mice
Protocol: About 60 to 80 mg of spinal cord homogenates were incubated with [^3H]-palmytic acid (2.5 μCi/ml, GE Healthcare, England) for one hour. Lipids were extracted with ice-cold methanol containing 2% acetic acid and 5% chloroform and resolved using thin-layer chromatography. Lipids co-migrating with standards were scraped and quantified by […] counting as described elsewhere (Castillo et al., 2007).

[5] = test system: manganese superoxide dismutase (MnSOD); test: MnSOD nitration by immunoprecipitation and western blot; type: in vivo, mice
Protocol: Animals were rapidly sacrificed (<1 min) in a CO2 chamber and the dorsal portion of the spinal cord lumbar region enlargement removed and stored at −80° C. until used. Cytosolic and nuclear extracts were prepared as previously described (Bethea et al., 1998), with minor modifications. Tissues from each mouse were suspended in extraction Buffer A (0.2 mM PMSF, […], 20 μM leupeptin, 1 mM sodium orthovanadate), homogenized for two minutes, and centrifuged at 1,000×g for ten minutes at 4° C. Supernatants were collected as the cytosolic fraction. […] The levels of IκB-α, phospho-NF-κB p65 (serine 536), were quantified in cytosolic fraction from spinal cord tissue, while NF-κB p65 levels were quantified in nuclear fraction. […] Manganese superoxide dismutase (MnSOD) nitration was determined with western blot analysis of immunoprecipitated protein complex in total lysates using antibodies specific to these proteins. […] The relative expression of the protein levels as the band density for IκB-α (˜37 kDa), phospho NF-κB (65 kDa), NF-κB p65 (75 kDa), MnSOD (˜29 kDa), GFAP (˜50 kDa), and Iba1(˜17 kDa) was quantified by scanning of the X-ray films with GS-700 Imaging Densitometer (BIO-RAD U.S.A.) and a computer program (Molecular Analyst, IBM).

ceramide [6] = test: immunohistochemistry for ceramide in spinal cord (Example 3)
[7] = morphine plus FB1 1 mg/kg/d, n=5, ±SEM

Question: What does the source list for `CCCC[C@@H](C)[C@@H](OC(=O)C[C@@H](CC(=O)O)C(=O)O)[C@H](C[C@@H](C)C[C@H](O)CCCC[C@@H](O)C[C@H](O)[C@H](C)N)OC(=O)C[C@@H](CC(=O)O)C(=O)O` [FB1, Fumonisin B1]?
Answer: increase in ceramide by immunohistochemical analysis and ESI-MS/MS (ceramide [1]; co-administration of morphine with FB1 1 mg/kg): prevented; GFAP immunoreactivity in superficial layers of the dorsal horn (GFAP; 1 mg/kg/d of FB1 with morphine): blocked; spinal expression of GFAP (activation of astrocytes) (GFAP; [7]): 4627.38±0.483 densitometry units; development of tolerance, dose-dependence (mice [2]; co-administered with morphine, FB1 0.1-1 mg/kg/d, myriocin 0.1-0.4 mg/kg/d, D609 10-40 mg/kg/d, n=10): attenuated in a dose-dependent manner; hot plate latencies following s.c. saline (mice [2]; day five, highest dose of drug, no morphine, n=10): six and seven; difference in responses to acute morphine (0.3-3 mg/kg), drug vs vehicle (mice [2]; highest dose over five days: FB1 1 mg/kg/d, myriocin 0.4 mg/kg/d, D609 40 mg/kg/d, n=10): statistically insignificant; antinociceptive effects when tested alone (mice [2]; highest dose, alone): none of FB1, myriocin, or D609 had antinociceptive effects; % MPE (mice [2]; tolerant mice, single i.p. dose fifteen minutes before acute morphine 3 mg/kg: FB1 1 mg/kg, myriocin 0.4 mg/kg, D609 40 mg/kg): 7±3%; % MPE for acute morphine (mice [3]; Mor+FB1 groups, FB1 1 mg/kg/day i.p. for six days with morphine minipump): 87±4 % MPE; % MPE for acute morphine (mice [3]; control+FB1 groups, FB1 1 mg/kg/day i.p., saline minipump): 85±6 % MPE; responses to acute morphine in control groups vs control groups treated with drug (mice [4]; Control+Drug groups, no repeated morphine): similar; development of antinociceptive tolerance (mice [4]; co-administration with morphine, i.p., FB1 1 mg/kg, myriocin 0.2 mg/kg, D609 40 mg/kg): prevented the development of antinociceptive tolerance; antinociceptive effects when tested alone (mice [4]; drug alone (not shown)): no antinociceptive effects; increase in CS activity (ceramide synthase; co-administration of morphine with FB1 1 mg/kg/d, n=10): attenuated as expected the increase in CS activity; post-translational nitration of MnSOD [5, 7]: 350±45 densitometry units; ceramide immunostaining (ceramide [6]; co-administered with morphine, FB1 1 mg/kg/d, myriocin 0.4 mg/kg/d, D609 40 mg/kg/d): attenuated; also recorded: abolished the presence of positive staining for ceramide

Question: Which “ceramide in dorsal horn, immunohistochemistry with anti-ceramide antibody” value (ceramide [1]; repeated administration of morphine over four days) does the source give for `CN1CC[C@]23c4c5ccc(O)c4O[C@H]2[C@@H](O)C=C[C@H]3[C@H]1C5` [morphine] here?
Answer: Its value is “appearance of ceramide in the superficial layers of the dorsal horn”.

Question: And the “predominant ceramide species increased in dorsal horn tissues, ESI-MS/MS” value (ceramide [1]; repeated morphine administration, n=3)?
Answer: The value was 18:0, 20:0, and 22:0 ceramide.

Question: And the “GFAP immunoreactivity in superficial layers of the dorsal horn” value (GFAP; acute morphine in tolerant mice vs vehicle)?
Answer: The value was “increased”.

Question: And the “spinal expression of GFAP” value (GFAP; morphine group, n=5)?
Answer: The value was 7343.95±0.527 densitometry units.

Question: What about the “percent maximal possible antinociceptive effect” value (mice [2]; acute morphine 3 mg/kg in vehicle group (saline over four days), hot plate) of the same compound?
Answer: The value was 90-95%.

Question: What about the “% MPE” value (mice [2]; morphine group (tolerant), acute morphine 3 mg/kg on day five) of the same compound?
Answer: The value was 10±2%.

Question: And the “development of antinociceptive tolerance” value (mice [2]; repeated administration of morphine (20 mg/kg/d) over four days)?
Answer: The value was “led to the development of antinociceptive tolerance”.

Question: What about the “% MPE” value (mice [2]; vehicle group (saline four days), acute morphine 3 mg/kg on day five) of the same compound?
Answer: Its value is 96±3%.

Question: What about the “% MPE for acute morphine” value (mice [3]; Morphine groups (morphine 50 mg/kg by osmotic minipump), acute morphine 3 mg/kg i.p., tail flick) of the same compound?
Answer: Its value is 15±4 % MPE.

Question: And the “% MPE for acute morphine” value (mice [3]; control groups (saline minipump), acute morphine 3 mg/kg i.p., tail flick, day six)?
Answer: Its value is 90±5 % MPE.

Question: What about the “% MPE for acute morphine” value (mice [4]; Control group (saline over four days)) of the same compound?
Answer: The value was 93±8 % MPE.

Question: And the “% MPE for acute morphine” value (mice [4]; Morphine group (morphine 2×10 mg/kg/day over four days))?
Answer: Its value is 20±14 % MPE.

Question: What about the antinociceptive effect (mice [4]; acute morphine 3 mg/kg subcutaneously, forty minutes after dose, hot plate 52° C., n=8) of the same compound?
Answer: Its antinociceptive effect is 99±2%.

Question: What about the “enzymatic activity of ceramide synthase (CS)” value (ceramide synthase; repeated morphine, tolerant mice vs vehicle) of the same compound?
Answer: The value was “increased enzymatic activity”.

Question: And the “post-translational nitration of MnSOD” value ([5]; mouse, in vivo)?
Answer: Its value is 850±70 densitometry units.

Question: What about the “ceramide staining in dorsal horn, immunohistochemistry” value (ceramide [6]; repeated morphine, day five) of the same compound?
Answer: Its value is “appearance of ceramide in the superficial layers of the dorsal horn; also recorded: marked appearance of positive staining for ceramide”.
